The subject of series [1] is HT-22 cells. The class given is cell-based, mouse.
The test system of series [2] is SNAP-25, Syntaxin-1A, AT1A3. The experiment in a line: Immunocytochemistry of porosome proteins in Alzheimer's neurons. The class given is cell-based, mouse. The conditions noted are these: Alzheimer's neurons WT-APP (Aβ).
The conditions of series [3]: stated in discussion, no reference given; cited from earlier work.

With `O=c1cc(-c2ccc(O)cc2)oc2cc(O)cc(O)c12` [Apigenin], the “mitoSOX, peptide plus Apigenin” value in series [1] (AD neurons, peptide and Apigenin combined) is “near normal levels”. Also, the “mitoSOX, effect of Apigenin” value in series [1] (HT-22, Apigenin 5 or 10 μM with DA1 1 μM, Aβ1–42 10 μM 12 h) was “not much change”. For the same compound, the “immunoreactivity of SNAP-25, Syntaxin-1A and AT1A3, single agent” value in series [2] is reported as “Modest increase”. In series [3], the “passage through the blood-brain barrier” value was “can pass through the blood-brain barrier”.

The values are drawn from publication doi:10.1101/2024.11.09.622805v1 (bioRxiv, 2024).
